Reference: ChEMBL document CHEMBL3886652, “Arlethynyl derivatives” (2016)

Biological target: Metabotropic glutamate receptor 5 (Homo sapiens, UniProt P41594)
Assay: Intracellular Ca2+ Mobilization Assay: A monoclonal HEK-293 cell line stably transfected with a cDNA encoding for the human mGlu5a receptor was generated; for the work with mGlu5 Positive Allosteric Modulators (PAMs), a cell line with low receptor expression levels and low constitutive receptor activity was selected to allow the differentiation of agonistic versus PAM activity. Cells were cultured according to standard protocols (Freshney, 2000) in Dulbecco's Modified Eagle Medium with high glucose supplemented with 1 mM glutamine, 10% (vol/vol) heat-inactivated bovine calf serum, Penicillin/Streptomycin, 50 μg/ml hygromycin and 15 μg/ml blasticidin (all cell culture reagents and antibiotics from Invitrogen, Basel, Switzerland). bout 24 hrs before an experiment, 5×10^4 cells/well were seeded in poly-D-lysine coated, black/clear-bottomed 96-well plates. The cells were loaded with 2.5 μM Fluo-4AM in loading buffer (1×HBSS, 20 mM HEPES) for 1 hr at 37 °C. and washed five times with loading buffer. The cells were transferred into a Functional Drug Screening System 7000 (Hamamatsu, Paris, France), and 11 half logarithmic serial dilutions of test compound at 37 °C. were added and the cells were incubated for 10-30 min. with on-line recording of fluorescence. […]
Assay type: cell-based, HEK293

Sequence of Metabotropic glutamate receptor 5 (P41594 whole entry): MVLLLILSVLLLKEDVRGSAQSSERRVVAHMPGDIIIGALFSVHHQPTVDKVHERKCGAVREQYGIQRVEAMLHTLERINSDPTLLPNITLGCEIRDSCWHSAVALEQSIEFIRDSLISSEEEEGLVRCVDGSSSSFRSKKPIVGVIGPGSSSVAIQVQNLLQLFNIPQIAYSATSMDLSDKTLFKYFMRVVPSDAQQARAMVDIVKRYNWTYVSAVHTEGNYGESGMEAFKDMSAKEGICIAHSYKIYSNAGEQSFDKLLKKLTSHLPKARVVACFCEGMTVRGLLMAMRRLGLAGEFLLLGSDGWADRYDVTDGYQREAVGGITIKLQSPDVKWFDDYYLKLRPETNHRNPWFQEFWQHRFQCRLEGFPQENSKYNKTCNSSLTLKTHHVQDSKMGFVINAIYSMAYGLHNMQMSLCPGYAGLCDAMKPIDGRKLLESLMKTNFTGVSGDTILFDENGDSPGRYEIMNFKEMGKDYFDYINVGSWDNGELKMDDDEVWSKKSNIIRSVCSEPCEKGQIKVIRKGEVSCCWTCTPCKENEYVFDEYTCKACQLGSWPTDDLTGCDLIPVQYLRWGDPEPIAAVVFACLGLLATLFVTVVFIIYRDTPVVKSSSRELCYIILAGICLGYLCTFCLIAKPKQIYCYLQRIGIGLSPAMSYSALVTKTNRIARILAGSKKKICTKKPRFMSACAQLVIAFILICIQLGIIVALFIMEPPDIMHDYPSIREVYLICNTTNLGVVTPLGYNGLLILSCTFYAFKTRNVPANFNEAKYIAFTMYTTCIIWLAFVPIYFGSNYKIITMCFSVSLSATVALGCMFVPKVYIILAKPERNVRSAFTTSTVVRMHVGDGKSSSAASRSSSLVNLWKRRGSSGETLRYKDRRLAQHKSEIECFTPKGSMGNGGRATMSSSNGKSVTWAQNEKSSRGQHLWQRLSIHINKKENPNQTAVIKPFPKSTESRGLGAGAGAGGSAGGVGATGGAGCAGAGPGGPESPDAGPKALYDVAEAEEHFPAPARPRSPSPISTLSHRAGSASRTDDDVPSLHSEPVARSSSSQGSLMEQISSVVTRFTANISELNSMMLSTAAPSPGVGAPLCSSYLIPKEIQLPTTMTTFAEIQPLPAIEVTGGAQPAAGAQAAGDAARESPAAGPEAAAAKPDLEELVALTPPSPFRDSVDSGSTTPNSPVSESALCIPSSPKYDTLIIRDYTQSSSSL

Structure (SMILES) | EC50
CCN1C(=O)N(c2ccc(C#Cc3cccnc3)cn2)C2CCCCC21 (configuration not stated) | 69 nM
CN1CC(C)(C)CN(c2ccc(C#Cc3ccccc3)cn2)C1=O | 33 nM
